Laboratory results taken from PubChem BioAssay (NCI).
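Each compound was tested at five concentrations against cells in 96-well plates for 48 hours. TGI: total growth inhibition.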

Legend:
Experiment in all cases: NCI tumour cell line growth inhibition, 48 h
M19-MEL melanoma = test system: M19-MEL melanoma
DMS 114 small cell lung = test system: DMS 114 small cell lung
DLD-1 colon = test system: DLD-1 colon
OVCAR-5 ovarian = test system: OVCAR-5 ovarian
HCT-15 colon = test system: HCT-15 colon
SN12K1 renal = test system: SN12K1 renal
HOP-62 NSCLC = test system: HOP-62 NSCLC
DMS 273 small cell lung = test system: DMS 273 small cell lung
EKVX NSCLC = test system: EKVX NSCLC
SK-OV-3 ovarian = test system: SK-OV-3 ovarian
IGROV1 ovarian = test system: IGROV1 ovarian
OVCAR-8 ovarian = test system: OVCAR-8 ovarian
SW-620 colon = test system: SW-620 colon
OVCAR-4 ovarian = test system: OVCAR-4 ovarian
SK-MEL-5 melanoma = test system: SK-MEL-5 melanoma
HOP-92 NSCLC = test system: HOP-92 NSCLC
P388 leukemia = test system: P388 leukemia
UACC-62 melanoma = test system: UACC-62 melanoma
COLO 205 colon = test system: COLO 205 colon
UO-31 renal = test system: UO-31 renal
NCI-H23 lung = test system: NCI-H23 lung
HCT-116 colon = test system: HCT-116 colon
RPMI-8226 leukemia = test system: RPMI-8226 leukemia
P388/ADR leukemia = test system: P388/ADR leukemia
CCRF-CEM leukemia = test system: CCRF-CEM leukemia
SNB-75 CNS = test system: SNB-75 CNS
UACC-257 melanoma = test system: UACC-257 melanoma
KM12 colon = test system: KM12 colon
RXF 393 renal = test system: RXF 393 renal
A549 NSCLC = test system: A549 NSCLC
HOP-18 NSCLC = test system: HOP-18 NSCLC
CAKI-1 renal = test system: CAKI-1 renal
SNB-19 CNS = test system: SNB-19 CNS
NCI/ADR-RES ovarian = test system: NCI/ADR-RES ovarian
SF-539 CNS = test system: SF-539 CNS
A498 renal = test system: A498 renal
SF-295 CNS = test system: SF-295 CNS
HT29 colon = test system: HT29 colon
K-562 leukemia = test system: K-562 leukemia
OVCAR-3 ovarian = test system: OVCAR-3 ovarian
SF-268 CNS = test system: SF-268 CNS
SK-MEL-28 melanoma = test system: SK-MEL-28 melanoma
MOLT-4 leukemia = test system: MOLT-4 leukemia
NCI-H522 lung = test system: NCI-H522 lung
SN12C renal = test system: SN12C renal
HCC-2998 colon = test system: HCC-2998 colon
NCI-H460 lung = test system: NCI-H460 lung
NCI-H226 lung = test system: NCI-H226 lung
MALME-3M melanoma = test system: MALME-3M melanoma
MCF7 breast = test system: MCF7 breast
XF 498 CNS = test system: XF 498 CNS
LOX IMVI melanoma = test system: LOX IMVI melanoma
U251 CNS = test system: U251 CNS
SK-MEL-2 melanoma = test system: SK-MEL-2 melanoma
KM20L2 colon = test system: KM20L2 colon
SNB-78 CNS = test system: SNB-78 CNS
HL-60(TB) leukemia = test system: HL-60(TB) leukemia

## COc1cc2c(oc(=O)c3cc(C)cc(OC)c32)c2c(C3OC(C)C(O)C(C)(O)C3O)ccc(O)c12 (configuration not stated)
M19-MEL melanoma
  TGI: 1.64 µM
DMS 114 small cell lung
  TGI: 1.17 µM
DLD-1 colon
  TGI: 4.56 µM
OVCAR-5 ovarian
  TGI: 2.89 µM
HCT-15 colon
  TGI: 3.65 µM
SN12K1 renal
  TGI: 1.51 µM
HOP-62 NSCLC
  TGI: 1.08 µM
DMS 273 small cell lung
  TGI: 1.27 µM
EKVX NSCLC
  TGI: 2.31 µM
SK-OV-3 ovarian
  TGI: 4.45 µM
IGROV1 ovarian
  TGI: 5.59 µM
OVCAR-8 ovarian
  TGI: 1.99 µM
SW-620 colon
  TGI: 7.74 µM
OVCAR-4 ovarian
  TGI: 2.14 µM
SK-MEL-5 melanoma
  TGI: 1.79 µM
HOP-92 NSCLC
  TGI: 4.32 µM
P388 leukemia
  TGI: 2.03 µM
UACC-62 melanoma
  TGI: 1.13 µM
COLO 205 colon
  TGI: 1.41 µM
UO-31 renal
  TGI: 3.19 µM
NCI-H23 lung
  TGI: 2.16 µM
HCT-116 colon
  TGI: 6.12 µM
RPMI-8226 leukemia
  TGI: 1.92 µM
P388/ADR leukemia
  TGI: 3.41 µM
CCRF-CEM leukemia
  TGI: 2.41 µM
SNB-75 CNS
  TGI: 1.46 µM
UACC-257 melanoma
  TGI: 1.62 µM
KM12 colon
  TGI: 5.41 µM
RXF 393 renal
  TGI: 1.18 µM
A549 NSCLC
  TGI: 7.4 µM
HOP-18 NSCLC
  TGI: 5.3 µM
CAKI-1 renal
  TGI: 2.06 µM
SNB-19 CNS
  TGI: 4.63 µM
NCI/ADR-RES ovarian
  TGI: 2.51 µM
SF-539 CNS
  TGI: 1.73 µM
A498 renal
  TGI: 1.29 µM
SF-295 CNS
  TGI: 1.29 µM
HT29 colon
  TGI: 4.81 µM
K-562 leukemia
  TGI: 3.73 µM
OVCAR-3 ovarian
  TGI: 2.51 µM
SF-268 CNS
  TGI: 2.1 µM
SK-MEL-28 melanoma
  TGI: 1.85 µM
MOLT-4 leukemia
  TGI: 0.875 µM
NCI-H522 lung
  TGI: 1.73 µM
SN12C renal
  TGI: 2.39 µM
HCC-2998 colon
  TGI: 1.76 µM
NCI-H460 lung
  TGI: 0.763 µM
NCI-H226 lung
  TGI: 1.21 µM
MALME-3M melanoma
  TGI: 1.45 µM
MCF7 breast
  TGI: 3.99 µM
XF 498 CNS
  TGI: 1.15 µM
LOX IMVI melanoma
  TGI: 1.71 µM
U251 CNS
  TGI: 2.42 µM
SK-MEL-2 melanoma
  TGI: 1.56 µM
KM20L2 colon
  TGI: 5.04 µM
SNB-78 CNS
  TGI: 5.32 µM
HL-60(TB) leukemia
  TGI: 0.251 µM
